Assay results reported in ChEMBL document CHEMBL5726710, “Thiazolopyrrolidine inhibitors of ROR- γ” (2018).

Biological target: T1, Nuclear receptor ROR-gamma (Homo sapiens, UniProt P51449)
T1 sequence (P51449 whole entry): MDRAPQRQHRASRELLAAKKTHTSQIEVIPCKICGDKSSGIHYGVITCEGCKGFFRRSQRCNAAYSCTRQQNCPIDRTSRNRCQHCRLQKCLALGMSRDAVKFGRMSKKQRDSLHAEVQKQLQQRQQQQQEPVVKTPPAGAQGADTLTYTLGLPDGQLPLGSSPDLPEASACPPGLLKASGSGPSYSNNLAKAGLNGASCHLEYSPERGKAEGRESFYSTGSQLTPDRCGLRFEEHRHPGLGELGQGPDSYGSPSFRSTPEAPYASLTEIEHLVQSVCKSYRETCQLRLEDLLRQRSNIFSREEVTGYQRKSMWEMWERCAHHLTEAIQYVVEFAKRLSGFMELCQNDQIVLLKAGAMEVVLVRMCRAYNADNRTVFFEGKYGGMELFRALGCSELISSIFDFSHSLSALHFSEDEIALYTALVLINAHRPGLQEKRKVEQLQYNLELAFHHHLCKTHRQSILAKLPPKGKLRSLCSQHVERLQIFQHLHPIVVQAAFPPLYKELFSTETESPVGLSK
Assay: Binding Assay: Compounds of the present invention were tested for ability to bind to RORγ in a cell-free competition assay with commercially available radio-ligand (RL), 25-hydroxy [26,27-3H]— cholesterol (PerkinElmer, Cat. # NET674250UC), for a ligand binding site on a recombinant RORγ Ligand Binding Domain (LBD) protein expressed as a 6×His-Glutathione-S-Transferase (GST) fusion (“6×His” disclosed as SEQ ID NO: 2). The assay was performed in 96-well SPA plates (PerkinElmer, Cat. #1450-401) in 50 mM HEPES buffer, pH 7.4, containing 150 mM NaCl, 5 mM MgCl2, 10% (v/v) glycerol, 2 mM CHAPS, 0.5 mM β-octylglucopyranoside and 5 mM DTT. Tested compounds were dissolved in DMSO, and semi-log (3.162×) serial dilutions of the compounds were prepared in the same solvent. Two μL of the DMSO solutions were mixed with 28 μL of 8.6 nM 25-hydroxy [26,27-3H]— cholesterol and 50 μL of 24 nM RORγ LBD. The plate was shaken at 700 rpm for 20 min and incubated for 10 min at rt, after which 40 μL of poly-Lys YSi SPA beads (PerkinElmer, Cat. # RPNQ0010) were added to achieve 50 μg of the beads per well. The plate was incubated on an orbital shaker for 20 min and then for 10 min without agitation at rt. SPA signal for tritium beta radiation was registered on PerkinElmer Microbeta plate reader. […]

Ki: > 1000 nM
Compound: CC(C)[C@H]1c2nc(NS(=O)(=O)c3cccc(C(F)(F)F)c3)sc2CN1Cc1ccc(Cl)cc1
